target: CXCR3 (Macaca fascicularis, UniProt A0A2K5UV19); test: functional cellular assay measuring calcium flux in CXCR3 transfected cells (block of CXCR3/IP-10 interaction); format: cell-based, Cyno; conditions: IP-10 induced intracellular calcium flux; Cyno-CHO cells stably expressing recombinant CXCR3 and G-alpha-16; IP-10 at EC80; read-out: IC50
Outline: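 Cyno-CHO cells stably expressing CXCR3 and G-alpha-16, loaded with Ca-4 dye in HBSS/10 mM HEPES pH 7.4 with 2 mM probenecid for 1 h at 37° C. Compound (final 10 microM) preincubated 15 min at room temperature, then IP-10 at EC80 added; calcium flux read at 480/540 nm.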

Chain of CXCR3 (A0A2K5UV19 entry or part of it): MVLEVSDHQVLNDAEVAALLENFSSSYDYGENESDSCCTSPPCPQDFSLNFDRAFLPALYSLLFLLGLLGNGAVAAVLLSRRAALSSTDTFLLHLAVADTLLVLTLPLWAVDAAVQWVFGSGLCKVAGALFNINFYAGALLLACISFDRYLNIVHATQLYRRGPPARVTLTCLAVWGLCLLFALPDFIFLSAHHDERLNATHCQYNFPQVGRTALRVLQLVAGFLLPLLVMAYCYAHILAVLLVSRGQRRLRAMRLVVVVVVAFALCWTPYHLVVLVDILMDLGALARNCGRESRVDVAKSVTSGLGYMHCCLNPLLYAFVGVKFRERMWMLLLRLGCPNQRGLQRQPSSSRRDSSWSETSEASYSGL

| Structure (SMILES) | IC50 [nM] |
| --- | --- |
| Cc1cc(C)n(CC(=O)N2CCN(c3ccccc3-c3cnc(N4CCCC(C(F)(F)F)C4)nc3)CC2)n1 (centres unmarked) [2-(3,5-Dimethyl-pyrazol-1-yl)-1-(4-{2-[2-(3-trifluoromethyl-piperidin-1-yl)-pyrimidin-5-yl]-phenyl}-piperazin-1-yl)-ethanone] | 12 |
| Cc1cc(C)n(CC(=O)N2CCN(c3ccccc3-c3cnc(N4CC(C)CC(C)C4)nc3)CC2)n1 (centres unmarked) [1-(4-{2-[2-(3,5-Dimethyl-piperidin-1-yl)-pyrimidin-5-yl]-phenyl}-piperazin-1-yl)-2-(3,5-dimethyl-pyrazol-1-yl)-ethanone] | 14 |
| COc1ncc(-c2cc(C(F)(F)F)ccc2N2CCN(C(=O)Cn3nc(C)cc3C)CC2)cn1 [2-(3,5-Dimethyl-pyrazol-1-yl)-1-{4-[2-(2-methoxy-pyrimidin-5-yl)-4-trifluoromethyl-phenyl]-piperazin-1-yl}-ethanone] | 8 |
| CS(=O)(=O)c1ncc(-c2cc(F)ccc2N2CCN(C(=O)Cn3cnc4cccnc43)CC2)cn1 [1-(4-{4-fluoro-2-[2-(methylsulfonyl)pyrimidin-5-yl]phenyl}piperazin-1-yl)-2-(3H-imidazo[4,5-b]pyridin-3-yl)ethanone] | 488 |
| CC1CN(c2ccc(F)cc2-c2cnc(S(C)(=O)=O)nc2)CCN1C(=O)Cn1c(=O)[nH]c2ccccc21 (centres unmarked) [1-[2-(4-{4-fluoro-2-[2-(methylsulfonyl)pyrimidin-5-yl]phenyl}-2-methylpiperazin-1-yl)-2-oxoethyl]-1,3-dihydro-2H-benzimidazol-2-one] | 60 |
| Cc1cc(C)n(CC(=O)N2CCN(c3ccc(C(F)(F)F)cc3-c3cnc(S(C)(=O)=O)nc3)CC2)n1 [2-(3,5-Dimethyl-pyrazol-1-yl)-1-{4-[2-(2-methanesulfonyl-pyrimidin-5-yl)-4-trifluoromethyl-phenyl]-piperazin-1-yl}-ethanone] | 54 |
| CC1CN(c2ccccc2-c2cnc(S(C)(=O)=O)nc2)CCN1C(=O)CN1Cc2ccccc2C1=O (centres unmarked) [2-[2-(2-methyl-4-{2-[2-(methylsulfonyl)pyrimidin-5-yl]phenyl}piperazin-1-yl)-2-oxoethyl]-2,3-dihydro-1H-isoindol-1-one] | 293 |
| CS(=O)(=O)C1CCN(c2ncc(-c3cc(F)ccc3N3CCN(C(=O)CN4Cc5ccccc5C4=O)CC3)cn2)CC1 [2-{2-[4-(4-fluoro-2-{2-[4-(methylsulfonyl)piperidin-1-yl]pyrimidin-5-yl}phenyl)piperazin-1-yl]-2-oxoethyl}-2,3-dihydro-1H-isoindol-1-one] | 9 |
| Cc1cc(C)n(CC(=O)N2CCN(c3ccc(C#N)cc3-c3cnc(N4CCOCC4)nc3)CC2)n1 [4-{4-[2-(3,5-Dimethyl-pyrazol-1-yl)-acetyl]-piperazin-1-yl}-3-(2-morpholin-4-yl-pyrimidin-5-yl)-benzonitrile] | 18 |
| Cc1cc(C)n(CC(=O)N2CCN(c3ccc(F)cc3-c3cnc(S(C)(=O)=O)nc3)CC2C)n1 (centres unmarked) [2-(3,5-dimethyl-1H-pyrazol-1-yl)-1-(4-{4-fluoro-2-[2-(methylsulfonyl)pyrimidin-5-yl]phenyl}-2-methylpiperazin-1-yl)ethanone] | 157 |
| COc1ncc(-c2ccccc2N2CCN(C(=O)Cn3ccc4ccnc(Cl)c43)CC2)cn1 [2-(7-Chloro-pyrrolo[2,3-c]pyridin-1-yl)-1-{4-[2-(2-methoxy-pyrimidin-5-yl)-phenyl]-piperazin-1-yl}-ethanone] | 16 |
| Cc1cc(C)n(CC(=O)N2CCN(c3ccccc3-c3cnc(N4CCC(F)CC4)nc3)CC2)n1 [2-(3,5-Dimethyl-pyrazol-1-yl)-1-(4-{2-[2-(4-fluoro-piperidin-1-yl)-pyrimidin-5-yl]-phenyl}-piperazin-1-yl)-ethanone] | 10 |
| O=C(Cn1ccc2cccnc21)N1CCN(c2ccc(C(F)(F)F)cc2-c2cnc(N3CCOCC3)nc2)CC1 [1-{4-[2-(2-Morpholin-4-yl-pyrimidin-5-yl)-4-trifluoromethyl-phenyl]-piperazin-1-yl}-2-pyrrolo[2,3-b]pyridin-1-yl-ethanone] | 15 |
| Cc1cc(C)n(CC(=O)N2CCN(c3ccccc3-c3cnc(C#N)nc3)CC2)n1 [5-(2-{4-[2-(3,5-Dimethyl-pyrazol-1-yl)-acetyl]-piperazin-1-yl}-phenyl)-pyrimidine-2-carbonitrile] | 43 |
| Cc1cc(C)n(CC(=O)N2CCN(c3ccccc3-c3cccc(Cl)c3)CC2)n1 [1-[4-(3′-Chloro-biphenyl-2-yl)-piperazin-1-yl]-2-(3,5-dimethyl-pyrazol-1-yl)-ethanone] | 111 |
| CC1CN(c2ccc(C(F)(F)F)cc2-c2cnc(N3CCC(S(C)(=O)=O)CC3)nc2)CCN1C(=O)Cn1cnc2cccnc21 (centres unmarked) [2-(3H-imidazo[4,5-b]pyridin-3-yl)-1-{2-methyl-4-[2-{2-[4-(methylsulfonyl)piperidin-1-yl]pyrimidin-5-yl}-4-(trifluoromethyl)phenyl]piperazin-1-yl}ethanone] | 7 |

| Structure (SMILES) | IC50 [nM] |
| --- | --- |
| CC1CN(c2ccc(C(F)(F)F)cc2-c2cnc(N3CCC(O)CC3)nc2)CCN1C(=O)Cn1ccc2ccncc21 (centres unmarked) [1-(4-{2-[2-(4-hydroxypiperidin-1-yl)pyrimidin-5-yl]-4-(trifluoromethyl)phenyl}-2-methylpiperazin-1-yl)-2-(1H-pyrrolo[2,3-c]pyridin-1-yl)ethanone] | 7 |
| CC1CN(c2ccc(C(F)(F)F)cc2-c2cnc(N3CCC(S(C)(=O)=O)CC3)nc2)CCN1C(=O)CN1Cc2ccccc2C1=O (centres unmarked) [2-(2-{2-methyl-4-[2-{2-[4-(methylsulfonyl)piperidin-1-yl]pyrimidin-5-yl}-4-(trifluoromethyl)phenyl]piperazin-1-yl}-2-oxoethyl)-2,3-dihydro-1H-isoindol-1-one] | 7 |
| CC1CN(c2ccccc2-c2cnc(N3CCC(O)CC3)nc2)CCN1C(=O)Cn1cnc2cccnc21 (centres unmarked) [1-(4-{2-[2-(4-hydroxypiperidin-1-yl)pyrimidin-5-yl]phenyl}-2-methylpiperazin-1-yl)-2-(3H-imidazo[4,5-b]pyridin-3-yl)ethanone] | 11 |
| COc1ncc(-c2cc(F)ccc2N2CCN(C(=O)Cn3nc(C)cc3C)CC2)cn1 [2-(3,5-Dimethyl-pyrazol-1-yl)-1-{4-[4-fluoro-2-(2-methoxy-pyrimidin-5-yl)-phenyl]-piperazin-1-yl}-ethanone] | 14 |
| O=C(Cn1ccc2cccnc21)N1CCN(c2ccccc2-c2cnc(N3CCCOCC3)nc2)CC1 [1-{4-[2-(2-[1,4]Oxazepan-4-yl-pyrimidin-5-yl)-phenyl]-piperazin-1-yl}-2-pyrrolo[2,3-b]pyridin-1-yl-ethanone] | 9 |
| C[C@@H]1CN(c2ccc(F)cc2C(=O)Nc2nc3c(s2)CN(C)CC3)CCN1C(=O)Cn1ccc2cccnc21 [5-fluoro-2-[(3R)-3-methyl-4-(1H-pyrrolo[2,3-b]pyridin-1-ylacetyl)piperazin-1-yl]-N-(5-methyl-4,5,6,7-tetrahydro[1,3]thiazolo[5,4-c]pyridin-2-yl)benzamide] | 20 |
| O=C(Cn1ccc2cccnc21)N1CC=C(c2ccccc2-c2cnc(N3CCOCC3)nc2)CC1 [1-{4-[2-(2-Morpholin-4-yl-pyrimidin-5-yl)-phenyl]-3,6-dihydro-2H-pyridin-1-yl}-2-pyrrolo[2,3-b]pyridin-1-yl-ethanone] | 20 |
| CNc1ncc(-c2cc(Cl)ccc2N2CCN(C(=O)Cn3nc(C)cc3C)CC2)cn1 [1-{4-[4-Chloro-2-(2-methylamino-pyrimidin-5-yl)-phenyl]-piperazin-1-yl}-2-(3,5-dimethyl-pyrazol-1-yl)-ethanone] | 13 |
| O=C(Cn1cnc2cccnc21)N1CCN(c2ccc(F)cc2-c2cnc(N3CCC(O)CC3)nc2)CC1 [1-(4-{4-fluoro-2-[2-(4-hydroxypiperidin-1-yl)pyrimidin-5-yl]phenyl}piperazin-1-yl)-2-(3H-imidazo[4,5-b]pyridin-3-yl)ethanone] | 8 |
| O=C(Cn1ccc2cccnc21)N1CCN(c2ccc(F)cc2-c2cnc(N3CCC(O)CC3)nc2)CC1 [1-(4-{4-fluoro-2-[2-(4-hydroxypiperidin-1-yl)pyrimidin-5-yl]phenyl}piperazin-1-yl)-2-(1H-pyrrolo[2,3-b]pyridin-1-yl)ethanone] | 8 |
| O=C(Cn1ccc2ccncc21)N1CCN(c2ccc(F)cc2-c2cnc(N3CCOCC3)nc2)CC1 [1-(4-{4-fluoro-2-[2-(morpholin-4-yl)pyrimidin-5-yl]phenyl}piperazin-1-yl)-2-(1H-pyrrolo[2,3-c]pyridin-1-yl)ethanone] | 13 |
| O=C(CN1Cc2ccccc2C1=O)N1CCN(c2ccc(F)cc2-c2cnc(N3CCC(O)CC3)nc2)CC1 [2-[2-(4-{4-fluoro-2-[2-(4-hydroxypiperidin-1-yl)pyrimidin-5-yl]phenyl}piperazin-1-yl)-2-oxoethyl]-2,3-dihydro-1H-isoindol-1-one] | 9 |
| CC1CN(c2ccc(F)cc2-c2cnc(N3CCC(S(C)(=O)=O)CC3)nc2)CCN1C(=O)CN1Cc2ccccc2C1=O (centres unmarked) [2-{2-[4-(4-fluoro-2-{2-[4-(methylsulfonyl)piperidin-1-yl]pyrimidin-5-yl}phenyl)-2-methylpiperazin-1-yl]-2-oxoethyl}-2,3-dihydro-1H-isoindol-1-one] | 10 |
| Cc1cc(C)n(CC(=O)N2CCN(c3ccccc3-c3cnc(N4CC(C)OC(C)C4)nc3)CC2)n1 (centres unmarked) [1-(4-{2-[2-(2,6-Dimethyl-morpholin-4-yl)-pyrimidin-5-yl]-phenyl}-piperazin-1-yl)-2-(3,5-dimethyl-pyrazol-1-yl)-ethanone] | 6 |
| Cc1cc(C)n(CC(=O)N2CCN(c3ccc(C(F)(F)F)cc3-c3cnc(N4CCOCC4)nc3)CC2)n1 [2-(3,5-Dimethyl-pyrazol-1-yl)-1-{4-[2-(2-morpholin-4-yl-pyrimidin-5-yl)-4-trifluoromethyl-phenyl]-piperazin-1-yl}-ethanone] | 8 |
| COc1ncc(-c2cc(F)ccc2N2CCN(C(=O)CN3CCCCC3=O)CC2)cn1 [1-(2-{4-[4-fluoro-2-(2-methoxypyrimidin-5-yl)phenyl]piperazin-1-yl}-2-oxoethyl)piperidin-2-one] | 174 |

Reference: patent publication US8450317B2, “CXCR3 receptor antagonists” (Boehringer Ingelheim International GmbH, priority 2009, dated 2013)
